Data: US20250270576A1, “AGRICULTURAL COMPOSITIONS AND METHODS OF USING THE SAME” (Arizona Board of Regents on behalf of Arizona State …, priority 2021, published 2025)

System: Col-0 plants
Experiment: growth of wild type plants in the presence of 2,3 butanediol
Assay type: in vivo, Arabidopsis thaliana
Excerpt: Top left: phenotypes of Col-0 (wild type; Arabidopsis thaliana) and genetically modified plants expressing the transgenic PROTON (H+-) pyrophosphatase in all tissues (AVP1) or in phloem cells only (pCoY), where average yields are AVP1>pCoY>Col-0 (FIG. 7). Left center: differential root acidification capacity of each genotype. Left bottom: 16S rRNA based composition of the root associated microbiomes (RAMs) through principal component analyses. Middle: Metabolomic profile of root exudates of the three plant genotypes, depicted as a heat map of relative concentration (each column a pools n>3 plants). Top right: Enrichment of proportional abundance of query and control pathways in the metagenome of rhizosphere RAMs. Middle right: Effect of exposure to 250 μM 2,3-butanediol on root development of Col-0 plants. Bottom right: mechanistic model for plant-microbe interactions at the base of phenotype enhancement and transferability.
To determine how the plant genotype can be made extensive to the RAM, we made use of a second mutant plant (pCoYMV::AVP1; pCoY hereafter), which overexpresses the H+-PPase in companion cells and sieve elements of the plant's phloem (22). […] We then assessed a second potential driver: root exudates. We determined the root exudate profiles, or exometabolome (23), of the three genotypes when grown under sterility on agar-solidified medium. […]

CC(O)C(C)O (centres unmarked) [2,3 butanediol, 2,3-butanediol]
phenotype in root development of wild type plants (wild type (Col-0) plants exposed to 250 μM 2,3-butanediol (FIG. 3)): AVP1-like, high yield phenotypes | phenotype in shoots of wild type plants (wild type (Col-0) plants grown in the presence of 2,3 butanediol, 250 μM per FIG. 3 legend): AVP1-like, high yield phenotypes
